Series [1] can be described thus: In vitro metabolic stability in human liver microsomes. Format: in vitro ADME. The note with it: 5 μM compound, 400 μg/ml HLM, 37 °C, timepoints 0, 30, 60 min; result in words.
For series [2], the system named is RmNMT. Format: biochemical, Rhinella marina. Particulars: for Higher conversion of substrate by RmNMT compared with OcINMT: from Table 1 activities.
Series [3] deals with HsINMT. Particulars: read-out: Km (HsINMT); cited from earlier work.
For series [4] the following is noted: radiolabeled compound injected into rabbits; result in words; cited from earlier work.
In series [5] the test system is RmNMT. Format: biochemical, Rhinella marina. The note with it: 30 °C, 10 min.
In series [6] the test system is OcINMT. The note with it: cited from earlier work.
The subject of series [7] is MAO-A. Particulars: rat liver mitochondria; result in words; cited from earlier work.
Series [8] has as its system mice. Particulars: result in words; cited from earlier work.
Series [9] addresses 5-HT2A receptor (Homo sapiens, UniProt P28223). Particulars: read-out: 5-HT2A Ki; cited from earlier work.
In series [10] the target is T1, 5-HT1A receptor (Homo sapiens, UniProt P08908).
T1 sequence (P08908 1-422): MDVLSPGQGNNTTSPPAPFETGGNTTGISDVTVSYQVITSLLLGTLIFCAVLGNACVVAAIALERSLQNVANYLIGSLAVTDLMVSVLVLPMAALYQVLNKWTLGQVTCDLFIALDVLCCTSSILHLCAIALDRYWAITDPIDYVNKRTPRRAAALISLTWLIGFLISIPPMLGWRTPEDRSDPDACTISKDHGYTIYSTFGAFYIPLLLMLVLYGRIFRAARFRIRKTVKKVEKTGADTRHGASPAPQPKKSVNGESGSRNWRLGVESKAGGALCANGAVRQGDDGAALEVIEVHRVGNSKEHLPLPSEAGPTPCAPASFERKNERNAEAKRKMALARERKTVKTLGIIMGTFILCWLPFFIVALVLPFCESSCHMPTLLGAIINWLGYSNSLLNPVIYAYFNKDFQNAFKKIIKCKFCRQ
In words: Radioligand competition assay. Format: binding. Particulars: 0.5 nM [3H]8-hydroxy-DPAT; mean ± SD of three independent replicates.

Where [11] appears, read: standard in vitro assay, 1 h, 37 °C, mean ± SD, triplicate.

Each structure is given as a SMILES string.

As a reminder, the Km is the substrate concentration at which the rate is half of its maximum. The Ki is a dissociation constant, usually derived from enzyme kinetics or from competition with a known ligand.

Chain of 5-HT2A receptor (P28223 whole entry): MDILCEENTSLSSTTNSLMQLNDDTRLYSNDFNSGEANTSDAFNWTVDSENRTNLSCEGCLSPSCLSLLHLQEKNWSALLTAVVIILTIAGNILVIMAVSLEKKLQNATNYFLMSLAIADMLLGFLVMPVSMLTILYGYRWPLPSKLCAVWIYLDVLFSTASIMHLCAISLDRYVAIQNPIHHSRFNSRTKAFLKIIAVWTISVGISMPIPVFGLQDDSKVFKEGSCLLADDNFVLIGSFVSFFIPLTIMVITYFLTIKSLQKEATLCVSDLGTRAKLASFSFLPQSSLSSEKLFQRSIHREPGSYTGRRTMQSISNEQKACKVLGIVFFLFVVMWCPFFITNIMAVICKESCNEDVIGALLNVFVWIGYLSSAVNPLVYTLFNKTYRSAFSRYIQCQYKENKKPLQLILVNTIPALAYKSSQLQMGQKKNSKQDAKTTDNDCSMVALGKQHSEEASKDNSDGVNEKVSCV

On to `CN(C)CCc1c[nH]c2ccc(O)cc12` [Bufotenin, 5-hydroxy-DMT], for which, in series [1], the “Metabolic stability during exposure to human liver microsome” value is on record as “degraded faster than psilocin”.
With `NCCc1c[nH]c2ccc(O)cc12` [5-Hydroxytryptamine (serotonin), 5-Hydroxytryptamine], the “RmNMT enzyme activity, product Bufotenin” value in series [2] is 4.65 ± 0.112.
Consider `NCCc1c[nH]c2ccccc12` [Tryptamine], for which the values for the Km in series [3] and in [6] (read-out: Km (OcINMT)) were 2920 µM and 270 µM, respectively. For the same compound, in series [4], the “Persistence in brain tissue” value is recorded as “disappeared within minutes”. For the same compound, the “kcat (RmNMT)” value in series [5] is 0.00052 s⁻¹. The “Higher conversion of substrate by RmNMT compared with OcINMT” value in series [2] is 18 fold. Moreover, the “RmNMT enzyme activity, product N-Methyltryptamine” value in [2] (setting [11]) amounted to 3.51 ± 0.079. Besides, in series [7], the “Activity as MAO-A substrate” value is listed as “substrates of MAO-A”.
Regarding `CNCCc1c[nH]c2ccccc12` [N-Methyltryptamine], in series [2], the “Higher conversion of substrate by RmNMT compared with OcINMT” value came out at 27 fold. Also, the “RmNMT enzyme activity, product DMT” value in [2] (setting [11]) stood at 10.44 ± 0.46. Moreover, in series [7], the “Activity as MAO-A substrate” value is reported as “substrates of MAO-A”.
In the case of `NCCc1c[nH]c2cccc(O)c12` [4-Hydroxytryptamine], in series [8], the Head-twitch response result is on record as “does not induce head-twitch response”.
Take `CN(C)CCc1c[nH]c2ccccc12` [DMT, N,N-dimethyltryptamine]: the Ki in series [9] was 1.2 µM. Further, in series [6] (result in words), the “Inhibition of OcINMT by its product” value is reported as “noncompetitively inhibited”. For the same compound, in series [7], the “Activity as MAO-A substrate” value is “could not be detected”.
For the compound `COc1ccc2c(CCN(C)C)c[nH]c2c1` [6-methoxy-DMT], the Ki in series [9] is 7.3 µM.
Take `Cc1[nH]c2ccccc2c1CCN` [2-Methyltryptamine]: the “5-HT1A Ki” value in series [10] is on record as “micromolar levels”. Further, in series [1], the “Metabolic stability during exposure to human liver microsome” value is “showed greater stability”.
With `CN(C)CCc1c[nH]c2cc(F)cc(O)c12` [6-fluoro-psilocin], the Ki in [9] was 0.013 µM.

These data come from PMC10570959 (The Journal of Biological Chemistry, 2023).
